From patent US7947854B2, “Bis-cationic compounds and use thereof” (The University of Sydney, priority 2003, dated 2011)
Where two headings read alike, the source gives them in different places.

Key:
[1] = system: secreted phospholipase B (PLB activity); assay: Radiometric assay, secreted PLB activity; format: biochemical, Cryptococcus neoformans H99; settings: for PLB, percentage inhibition of activity: Secretory Cryptococcal H99 Phospholipase
Experimental: Fungal isolates and media. […] Isolate H99 was kindly supplied by Dr. Gary Cox (Duke University Medical Center, Durham, N.C., USA), and subcultured onto Sabouraud dextrose agar (SDA) at 30° C.
Preparation of supernatants containing secreted phospholipase activities. Isolate H99 was grown to confluence on SDA in 16 cm diameter Petri dishes for 72 h at 30° C. in air. Cells scraped from 10-20 dishes were washed sequentially with isotonic saline and imidazole buffer (10 mM imidazole, 2 mM CaCl2, 2 mM Mg Cl2, 56 mM D-Glucose, made up in isotonic saline, pH 5.5), resuspended in a volume of this buffer of about 10% of the cell volume, and incubated for 24 h at 37° C. The cell-free supernatant was separated by centrifugation as previously described and stored at −70° C.
Radiometric assay method for phospholipases. Enzyme activities were measured as described previously in a final volume of 125 μL at 37° C. For the determination of secreted PLB activity, carrier dipalmitoyl phosphatidylcholine (DPPC, final concentration 800 μM) and 1,2-di[1-^14C] palmitoyl phosphatidylcholine (20,000 dpm) were dried under nitrogen and suspended in 125 mM imidazole acetate buffer (assay buffer, pH 4.0) by sonication using a Branson 450 sonifier. The reaction time was 22 min, using 1 μg total protein and PLB activity was determined by the rate of decrease of the radiolabelled PC substrate, with appearance of the label in free fatty acid. This assay also simultaneously allows for the determination of phospholipase A, C and D activities. These activities were measured by the appearance of radiolabel from PC in Lyso PC, diacylglycerol and phosphatidic acid, respectively.
All reactions were terminated by adding 0.5 mL of chloroform:methanol (2:1 v/v). The reaction products were extracted by the method as disclosed in Bligh, E. C. and W. J. Dyer. 1959 ‘A rapid method of total lipid extraction and purification.’ Can. J. Biochem. Physiol. 37:911-917, separated by TLC and quantified as previously described. In the case of PLC activity, the TLC plates were developed in petroleum ether (BP 60-80° C.): diethyl ether: acetic acid (90:15:1, v/v/v) instead of chloroform:methanol:water (65:25:4, v/v/v).
Preparation of inhibitors and use in assays. The following compounds were tested (for structures, see FIG. 2): compound 1, 1,12-bis(tributylphosphonium)dodecane dibromide (Fluka AG, Buchs, Switzerland); compound 2, 1,10-bis(tributylammonium)-decane dibromide; compound 3, 1,12-bis(tributylammonium)do-decane dibromide (both synthesised in-house); compound 4, 1,10-bis(trimethylammonium)decane dibromide [“decamethonium”] (Sigma, St. Louis Mo., USA). All compounds were prepared as stock solutions of 700 μM in assay buffer containing 5 mM EDTA, which was then diluted serially with buffer to obtain solutions of 70, 7, 0.7 and 0.07 μM. In each assay, 45 μL of these solutions was used, and the final volume of 125 μL was made up of substrate, enzyme and buffer. The radiometric assay was carried out as above. Inhibition was calculated as the percent of substrates (DPPC or Lyso-PC) remaining in the case of PLB and LPL activities, or of DPPC produced, in the case of the LPTA activity. The amounts converted, or produced, in the inhibitor-free control were normalised to 100%, and the inhibition calculated against it. All assays were done in triplicate.
Under these conditions only PLB, LPL and LPTA activities (both secreted and cell-associated) were measured. Initially, compounds deemed to be potential inhibitors were assayed at 25 and 250 μM. Those showing some inhibition were then also assayed at 2.5 and 0.25 μM.

[2] = system: Cryptococcus neoformans ATCC 90112; assay: Antifungal susceptibility testing, microdilution MIC; format: cell-based; settings: Cryptococcus neoformans, ATCC90112
Experimental: (§1) Antifungal susceptibility testing. The antifingal activity of the compounds was measured by a standard microdilution method. […] The fungal strains tested included Cryptococcus neoformans H99, Cryptococcus neoformans ATCC 90112 and Candida albicans ATCC 10231. All tests were performed in duplicate.
(§2) A range of cationic compounds were assayed for antifungal activity in a standardised serial dilution sensitivity test against C. neoformans ([…]) and C. Albicans (ATCC 10231).

[3] = system: Candida albicans ATCC 10231; assay: as above; format: cell-based; settings: Candida albicans, ATCC10231
Experimental: as §1, §2

[4] = target: T1, Porcine pancreatic phospholipase A2 (Sus scrofa, UniProt P00592); assay: Pancreatic phospholipase assay; format: biochemical; settings: read-out: ppPLA2, percentage inhibition of activity
T1 construct: purchased Sigma, St. Louis MO, USA
Experimental: Pancreatic phospholipase assay. Porcine pancreatic phospholipase A2 suspension in 3.2M ammonium sulfate (2.9 mg protein/mL, Sigma St.Louis Mo., USA) was used. One part of well mixed enzyme suspension was added to 4 parts of buffer (10 mM Tris/HCl, pH 8.2; 10 mM CaCl2. Activity and inhibition by test compounds was then measured by the radiometric method described in Example 2 for fungal PLB activity. However, 25 μL enzyme solution was used, and the reaction time was 1 hour. These conditions result in ˜60% substrate conversion in the inhibitor-free control.

T1 sequence (P00592 23-146): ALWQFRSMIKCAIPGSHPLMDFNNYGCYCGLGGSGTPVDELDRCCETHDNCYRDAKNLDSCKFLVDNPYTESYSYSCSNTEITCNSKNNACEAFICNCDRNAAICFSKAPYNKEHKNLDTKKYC

## CCCC[N+](CCCC)(CCCC)CCCCCCCCCC[N+](CCCC)(CCCC)CCCC [Compound 2, 1,10-bis(tributylammonium)-decane dibromide]
[1]; 0.25 μM
  PLB assay (% inhibition): 0%
  PLB, percentage inhibition of activity: 0%
[1]; 2.5 μM
  PLB assay (% inhibition): 30%
  PLB, percentage inhibition of activity: 30%
[1]; 25 μM
  PLB assay (% inhibition): 80%
  PLB, percentage inhibition of activity: 80%
[1]; 250 μM
  PLB assay (% inhibition): 90%
  PLB, percentage inhibition of activity: 90%
[2]; Table 6, no visible growth after 72 h at 35° C., read-out: MIC C. neof. ATCC 90112
  MIC: 11 µM
[2]; Table 7, read-out: MIC (μM) Crypto. (ATCC 90112)
  MIC: 11 µM
[3]; Table 6, no visible growth after 48 h at 35° C., read-out: MIC C. albicans ATCC 10231
  MIC: 88 µM
[3]; Table 7, read-out: MIC (μM) C. alb. (10231)
  MIC: 88 µM
[4]; 0.25 μM
  inhibition at 0.25 µM: 0%
[4]; 2.5 μM
  inhibition at 2.5 µM: 0%
[4]; 25 μM
  inhibition at 25 µM: 25%
[4]; 250 μM
  inhibition at 250 µM: 65%
